Tests used:
[1] = target: T1, human muscarinic M3 receptor (Homo sapiens, UniProt P20309); assay: Human muscarinic M3 receptor binding assay ([3H]-NMS, CHO-K1 cell membranes); details: 1 nM [3H]-NMS, CHO-K1 membranes 4.9 μg/well, two hours incubation; read-out: Binding, IC50, nM M3
T1 construct: purchased Perkin Elmer; host or cells: CHO-K1 cells (membranes)
Experimental: Test 2: Human Muscarinic M1, M2, M3, M4 and M5 Receptors Binding Assays
The study of binding to human muscarinic M1, M2, M3, M4 and M5 receptors was performed using commercial membranes (Perkin Elmer) prepared from CHO-K1 cells. Radioligand binding experiments were conducted in 96 polypropylene well plates in a total volume of 200 μl. All reagents were dissolved in assay binding buffer (PBS with calcium and magnesium, SIGMA), except compounds that were dissolved in DMSO 100%. Non-specific binding (NSB) was measured in the presence of 1 μM atropine. [3H]-NMS was used as the radioligand at a concentration of 1 nM for M2, M3 and M5 and 0.3 nM for M1 and M4. [3H]-NMS and antagonists were incubated with membranes that express human muscarinic receptors M1, M2, M3, M4 and M5 at concentrations of 8.1, 10, 4.9, 4.5 and 4.9 μg/well, respectively.
After an incubation period of two hours with gentle shaking, 150 μl of the reaction mix were transferred to 96 GF/C filter plates (Millipore), previously treated with wash buffer (Tris 50 mM; NaCl 100 mM; pH:7.4), containing 0.05% PEI (Sigma) during one hour. Bound and free [3H]-NMS were separated by rapid vacuum filtration in a manifold from Millipore and washed four times with ice cold wash buffer. After drying 30 min, 30 μl of OPTIPHASE Supermix were added to each well and radioactivity quantified using a Microbeta microplate scintillation counter.
The affinity of each test compound to the receptors was determined by using ten different concentrations ran in duplicate. IC50s were calculated using Activity Base software from IDBS and the four parameters-log equation.

[2] = target: T2, human adrenergic beta2 receptor (Homo sapiens, UniProt P07550); assay: Human adrenergic β2 receptor binding assay (3H-CGP12177, Sf9 cell membranes); details: 0.6 nM 3H-CGP12177, Sf9 membranes 5 μg/well, 60 min room temperature; read-out: Binding, IC50, nM β2
T2 construct: purchased Perkin Elmer; host or cells: Sf9 cells (overexpressed; membranes)
Experimental: Typically said beta2-adrenergic binding assay comprises: • a) providing a membrane suspension comprising Sf9 cells in an assay buffer • b) incubating with 3H-CGP12177 in plates previously treated with assay buffer containing a coating agent • c) measuring binding of test compound in the presence of propanolol • d) maintaining incubation • e) terminating the binding reactions • f) determining the affinity of the test compound for the receptor by repeating steps a) to e) using multiple different test compound concentrations. • g) calculating an IC50 using the four parameters-log equation.
Test 1: Human Adrenergic β1 and β2 Receptor Binding Assays
The study of binding to human adrenergic beta1 and beta2 receptors was performed using commercial membranes prepared from Sf9 cells where they are overexpressed (Perkin Elmer). The membrane suspensions (16 μg/well for beta1 and 5 μg/well for beta2) in assay buffer (75 mM Tris/HCl with 12.5 mM MgCl2 and 2 mM EDTA pH=7.4) were incubated with 0.14 or 0.6 nM of 3H-CGP12177 (Amersham) for beta 1 and beta 2 receptors respectively in a final volume of 250 μl, in GFC Multiscreen 96 well plates (Millipore) previously treated with assay buffer containing 0.3% PEI (Sigma). Non specific binding was measured in the presence of 1 μM propanolol. Incubation was maintained for 60 minutes at room temperature and with gentle shaking. The binding reactions were terminated by filtration and washing with 2.5 volumes of Tris/HCl 50 mM pH=7.4. The affinity of each test compound to the receptor was determined by using ten different concentrations ran in duplicate. IC50s were calculated using Activity Base software from IDBS and the four parameters-log equation.

T1 sequence (P20309 whole entry): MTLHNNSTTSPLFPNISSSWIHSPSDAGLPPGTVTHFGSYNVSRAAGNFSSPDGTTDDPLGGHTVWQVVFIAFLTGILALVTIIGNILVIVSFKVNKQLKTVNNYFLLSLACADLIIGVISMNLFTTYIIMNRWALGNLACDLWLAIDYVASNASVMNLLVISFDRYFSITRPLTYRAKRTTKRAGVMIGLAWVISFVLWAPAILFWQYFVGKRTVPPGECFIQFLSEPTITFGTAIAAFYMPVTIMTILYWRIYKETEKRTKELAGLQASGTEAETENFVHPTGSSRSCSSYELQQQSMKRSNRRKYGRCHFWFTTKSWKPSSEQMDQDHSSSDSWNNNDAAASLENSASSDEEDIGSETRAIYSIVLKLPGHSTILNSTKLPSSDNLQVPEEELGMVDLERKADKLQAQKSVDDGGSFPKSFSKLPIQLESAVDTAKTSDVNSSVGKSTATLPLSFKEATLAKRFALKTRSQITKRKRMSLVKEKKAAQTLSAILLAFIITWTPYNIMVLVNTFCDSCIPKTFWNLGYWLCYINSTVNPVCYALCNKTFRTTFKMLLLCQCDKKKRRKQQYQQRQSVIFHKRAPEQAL

Substance	IC50 [1] [nM]	IC50 [2] [nM]
trans-4-aminocyclohexyl[4-(4-{[6-({[(2R)-2-hydroxy-2-(8-hydroxy-2-oxo-1,2-dihydroquinolin-5-yl)ethyl]amino}methyl)pyridin-3-yl]amino}-4-oxobutyl)-biphenyl-2-yl]carbamate dihydrochloride [Example 57]	0.86	7.4
trans-4-aminocyclohexyl[4-(4-{[trans-4-({[(2R)-2-hydroxy-2-(8-hydroxy-2-oxo-1,2-dihydroquinolin-5-yl)ethyl]amino}methyl)cyclohexyl]amino}-4-oxobutyl)biphenyl-2-yl]carbamate dihydrochloride [Example 44]	1.2	6.3
trans-4-aminocyclohexyl[4-(5-{[4-({[(2R)-2-hydroxy-2-(8-hydroxy-2-oxo-1,2-dihydroquinolin-5-yl)ethyl]amino}methyl)phenyl]amino}-5-oxopentyl)biphenyl-2-yl]carbamate dihydrochloride [Example 37]	1.2	18
